# Measurements taken from article PMC4279419, “Angiostatic, tumor inflammatory and anti-tumor effects of CXCL4^47–70 and CXCL4L1^47–70 in an EGF-dependent breast cancer model” (Oncotarget, 2014).
# Where no end group is shown, it is not given here.
# Columns and labels:
# B16 melanoma = details: previous study by our group; cited from earlier work
# Source text: The chemokines CXCL4 and CXCL4L1 have both been attributed anti-tumoral activity as a result of angiostatic action, blockade of lymphatic vessel formation and the attraction of anti-tumoral lymphocytes. CXCL4L1 is considered to be a more powerful angiostatic and anti-tumoral agent than its homologue CXCL4, despite their striking 96% sequence identity. This functional difference has been linked to a single amino acid replacement, causing CXCL4L1 to adapt a unique carboxy-terminal 3D-structure with decreased affinity for GAGs. However, the causal link ...
# EGF = EGF binding (heterodimerization) assay in 96-well plates; set-up: species or system human; details: amino-terminally biotinylated peptides; 37 °C; 2 μg/ml EGF coated; OD450; n=3
# Experimental: GAG, EGF and CCL5 binding were quantified in 96-well plates following a similar protocol. GAG binding was evaluated by immobilizing low molecular weight heparin (Iduron, Manchester, UK) on EpranEx plates (BD Biosciences), whereas EGF as well as CCL5 recombinant human protein (R&D Systems and PeproTech, respectively) was immobilized on high protein-binding ELISA plates (Corning life sciences, Tewksbury, MA). In brief, 25 μg/ml GAG [diluted in assay buffer 100 mM NaCl, 50 mM NaAc, pH 7.2, and 0.2% (v/v) Tween-20], 2 μg/ml EGF or 50 ng/ml CCL5 (both diluted in PBS), was coated overnight at room temperature on 96-well plates. Plates were washed three times with either assay buffer or 0.5% (v/v) Tween 20 in PBS and blocked at 37°C with buffer enriched with either 0.2% (w/v) gelatin (heparin binding assay) or 0.1% (w/v) casein (EGF or CCL5 binding assay). Subsequently, a dilution curve of biotinylated CXCL4L1^47–70 and CXCL4^47–70 peptide was pipetted on the plate and incubated at 37 °C to allow interaction with heparin, EGF or CCL5. After washing, retained biotinylated peptide was detected by peroxidase-conjugated streptavidin. Peroxidase activity was quantified by measuring the conversion of 3,3′,5,5′-tetramethylbenzidine (Sigma-Aldrich) at 450 nm.
# [1] = test system: F4/80^+ cells in MDA-MB-231 tumors; assay: Flow cytometry of intratumoral F4/80^+ cells; type: in vivo, mice; details: 2.5 μg intratumoral 3×/week; n=9; control 6.85 ± 1.18% (n=10)
# Experimental: For flow cytometry, single cell suspensions were prepared from tumor biopsies using a MACS dissociator (Myltenyi Biotec, Bergisch Gladbach, Germany) and a mixture of collagenase A and dispase. Remaining cell clumps were removed by passing the cell suspension through a nylon cell strainer (70 μm mesh). Remaining red blood cells were lysed in ACK lysis buffer (0.15 M NH4Cl, 0.1 mM Na2EDTA, 10 mM KHCO3; pH = 7.2). Subsequently monocytes were identified by flow cytometry using specific antibodies, namely rat anti-mouse F4/80-PE antibody (eBiosciences, San Diego, CA).
# macrophage markers = assay: qPCR tumor macrophage marker expression; type: in vivo, murine; details: 2.5 μg intratumoral 3×/week; 2^−ΔΔCT
# Experimental: (§1) The RNeasy Mini Kit (QIAGEN, Venlo, the Netherlands) was used for tumor mRNA extraction. The extracted mRNA was then converted to cDNA making use of the High Capacity cDNA Reverse Transcription Kit (Applied Biosystems, Foster City, CA). Quantitative polymerase chain reactions (qPCR) based on the TaqMan principle were conducted to compare gene expression between samples. Primers and probes (Table 2; Integrated DNA Technologies, Haasrode, Belgium), were diluted to the prescribed working concentrations in RNase-free water and added to the reaction mix in a MicroAmp® fast optical 96-well reaction plate (Applied Biosystems), together with 50 ng sample cDNA per reaction. The actual thermocycler program consisted of 2 minutes on 50 °C, 10 minutes on 95 °C and 40 cycles of 15 seconds on 95 °C followed by 1 minute on 60 °C. Analysis of the obtained CT was based on the 2^−ΔΔC^T method, opting for 18S ribosomal 1 RNA as an internal control.
# [2] = test system: bovine aortic endothelial cells (GM7373); assay: GM7373 proliferation assay (cell counting); type: cell-based; details: peptide 0.4 μg/ml, 0.4% FCS, 24 h, cell counts, mean ± s.e.m., n=3; for GM7373 proliferation relative to EGF alone (100%): EGF 10 ng/ml; for GM7373 proliferation relative to FGF2 alone (100%): FGF2 10 ng/ml
# Experimental: Cell proliferation assays on GM7373 cells were performed as described. Briefly, subconfluent cultures of GM7373 cells were seeded in 96-well dishes at 65 × 10^3 cells/cm^2. After 16 h, cells were incubated in triplicate in fresh medium containing 0.4% FCS plus FGF1 (30 ng/ml), FGF2 (10 ng/ml), FGF8 (30 ng/ml), EGF (10 ng/ml), VEGF (30 ng/ml), 12-O-tetradecanoyl phorbol 13-acetate (TPA, 10 ng/ml) or 10% FCS in the absence or in the presence of 400 ng/ml of CXCL4^47–70 or CXCL4L1^47–70. After 24 h, cells were trypsinized and counted in a Bürker chamber. Data were expressed as percentages of cell proliferation measured in the presence of the mitogenic stimulus alone.
# CD204 = assay: qPCR tumor CD204 mRNA (M2 marker); type: in vivo, murine; details: 2.5 μg intratumoral 3×/week; 2^−ΔΔCT
# Experimental: as §1
# monocytic THP-1 = details: as a single stimulus; cited from earlier work
# Source text: Perception of the role of the immune system in tumor development has changed over time. Tumor inflammation is indeed the seventh hallmark of malignant disease, but the sizeable myeloid population present has been mostly observed to take on a tumor-promoting role rather than exert its protective, phagocytic and cytotoxic function. This shift could be attributed to the phagocytes' versatility and their ability to adopt distinct phenotypes influenced by locally produced factors. Rather than depleting the tumoral myeloid cell population, it could be beneficial to tackle its pola ...
# NOS2 = assay: qPCR tumor NOS2 mRNA (M1 marker); type: in vivo, murine; details: 2.5 μg intratumoral 3×/week; 2^−ΔΔCT; not reaching statistical significance
# Experimental: as §1
# IFN-γ = assay: qPCR tumor IFN-γ mRNA; type: in vivo, murine; details: 2.5 μg intratumoral 3×/week; 2^−ΔΔCT
# Experimental: as §1
# IL-12 = assay: qPCR tumor IL-12 mRNA (M1 marker); type: in vivo, murine; details: 2.5 μg intratumoral 3×/week; 2^−ΔΔCT; not reaching statistical significance
# Experimental: as §1
# muCCL5 = assay: qPCR stromal CCL5 mRNA; type: in vivo, murine; details: 2.5 μg intratumoral 3×/week; 2^−ΔΔCT; p=0.020, n=7
# Experimental: as §1
# CD11c = assay: qPCR tumor CD11c mRNA (dendritic cell marker); type: in vivo, murine; details: 2.5 μg intratumoral 3×/week; 2^−ΔΔCT; p=0.032, n=10
# Experimental: as §1
# TGM2 = assay: qPCR tumor TGM2 mRNA (M2 marker); type: in vivo, murine; details: 2.5 μg intratumoral 3×/week; 2^−ΔΔCT
# Experimental: as §1
# F4/80 = assay: qPCR tumor F4/80 mRNA; type: in vivo, murine; details: 2.5 μg intratumoral 3×/week; 2^−ΔΔCT; p=0.008, n=10
# Experimental: as §1
binding to EGF-coated plate (EGF),Substance,effect in treatment of B16 melanoma (B16 melanoma),intratumoral F4/80^+ cells [1],macrophage marker expression versus vehicle (macrophage markers),GM7373 proliferation relative to EGF alone (100%) [2],GM7373 proliferation relative to FGF2 alone (100%) [2],CD204 mRNA versus control (CD204),"THP-1 migration, single stimulus (monocytic THP-1)",NOS2 mRNA versus control (NOS2),IFN-γ mRNA versus vehicle (IFN-γ),IL-12 mRNA versus control (IL-12),stromal CCL5 expression versus vehicle (muCCL5),CD11c mRNA versus vehicle (CD11c),TGM2 mRNA versus control (TGM2),F4/80 mRNA level versus control (F4/80)
equally well in a dose-dependent manner,"CXCL4L1^47–70: synthetic human carboxy-terminal peptide restricted to the last 24 amino acids of CXCL4L1, Fmoc chemistry",beneficial effects of CXCL4L1^47–70,7.74 ± 1.35%,No significant changes in macrophage marker expression,49 ± 1%,47 ± 4%,,,,,,,,,
equally well in a dose-dependent manner,"CXCL4^47–70: synthetic human carboxy-terminal peptide restricted to the last 24 amino acids of CXCL4, Fmoc chemistry (NGRKICLDLQAPLYKKIIKKLLES; not fully specified (N-terminus))",,,,74 ± 3%,28 ± 10%,only a modest increase,not to stimulate monocytic THP-1 migration,only modestly increased,significantly elevated expression,only modestly increased,significantly upregulated,more prominent,only a modest increase,significantly higher
